Assay results reported in patent US7449567B2, “Isolation and identification of mouse and human transcription control elements associated with cytochrome expression” (Xenogen Corporation, priority 2001, dated 2008).
Where two headings read alike, the source gives them in different places.

Experiments:
[1] = tested on: CYP3A4-luc transgene (13 kb human CYP3A4 promoter); settings: mouse, in vivo
Procedure: General methods for evaluating the animal lines were as follows. Tg founders were bred to wild-type FvB mice to generate F1 mice. A female transgenic founder was bred to a wild-type FvB male and a male transgenic founder was bred to a few wild-type FvB females.
A Luciferin stock solution of 30 mg/ml was prepared in sterile PBS.
The route of administration for the drugs and for luciferin was IP. The dose of reagent administration of luciferin substrate and drugs was as follows. Dose of luciferin: 150 mg/kg of a 30 mg/ml luciferin stock was injected IP five minutes before imaging in the IVIS™ (Xenogen Corporation, Alameda, Calif.) system. […] DMSO was administrated as a vehicle control.
Following luciferin administration the animals were anesthetized using gas anesthesia (Isoflurane) and placed in an IVIS™ box (Xenogen Corporation, Alameda, Calif.) for imaging. All animals were imaged before and after chemical administration, and imaged at high resolution (binning 2) for 10 seconds or 1 minute, for males and females, respectively.
NT is the non-treated control. Before each imaging session, mice were injected i.p. with 150 mg/kg luciferin. […] Measurements on each mouse were performed as described above. […] Measurements on each mouse were performed as described above.

[2] = biological target: T1, hPXR (Homo sapiens, UniProt O75469); settings: cited from earlier work
T1 sequence (O75469 1-434): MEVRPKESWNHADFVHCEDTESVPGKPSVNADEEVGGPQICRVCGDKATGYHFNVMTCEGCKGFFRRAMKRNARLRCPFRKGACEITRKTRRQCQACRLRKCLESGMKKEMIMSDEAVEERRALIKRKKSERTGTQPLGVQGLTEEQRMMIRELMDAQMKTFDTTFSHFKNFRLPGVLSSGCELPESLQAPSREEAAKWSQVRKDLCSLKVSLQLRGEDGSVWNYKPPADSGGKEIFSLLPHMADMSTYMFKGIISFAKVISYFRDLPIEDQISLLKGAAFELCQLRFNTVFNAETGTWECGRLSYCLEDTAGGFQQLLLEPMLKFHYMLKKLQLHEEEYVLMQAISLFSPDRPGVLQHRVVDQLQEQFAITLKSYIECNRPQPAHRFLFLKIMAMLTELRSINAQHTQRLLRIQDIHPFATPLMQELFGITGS

[3] = cell culture, Xie et al. 2000, Goodwin et al. 1999

| Structure (SMILES) | induction of the transgene CYP3A4-luc ([1]; FVB (CYP3A4-luc transgenic, line #82)) | induction of CYP3A4 expression via hPXR [2, 3] | induction of the transgene CYP3A4-luc [1] | induction of CYP3A4 expression via hPXR [2] |
| --- | --- | --- | --- | --- |
| Clc1ccccc1C(c1ccccc1)(c1ccccc1)n1ccnc1 [Clotrim, clotrimazole] | induced the transgene CYP3A4-luc better than other three compounds | relatively better inducers of CYP3A4 expression |  |  |
| CC(=O)[C@H]1[C@H](C#N)C[C@H]2[C@@H]3CC=C4C[C@@H](O)CC[C@]4(C)[C@H]3CC[C@@]21C [PCN, 5-pregnene-3b-OL-20-ONE-16a-Carbonitrile] |  | weaker inducers | induced the transgene CYP3A4-luc better than other three compounds |  |
| CCC1(c2ccccc2)C(=O)NC(=O)NC1=O [Phenob, phenobarbitol] |  |  | induced the transgene to various degrees | relatively better inducers of CYP3A4 expression |
| CC(=O)[C@H]1CC[C@H]2[C@@H]3CC=C4C[C@@H](O)CC[C@]4(C)[C@H]3CC[C@]12C [Preg, pregnenolone] |  |  | all drugs except for Preg induced the transgene | weaker inducers |
